Experimental data: the CheMixHub viscosity set

Assay: xn = mol fraction of the nth substance listed

Cc1ccnc(C)c1 + c1ccccc1
viscosity [mPa·s], 101 kPa
Conditions	x1 = 0.1033	x1 = 0.1926	x1 = 0.3022	x1 = 0.397	x1 = 0.492	x1 = 0.6027	x1 = 0.697	x1 = 0.8005	x1 = 0.8995
303 K	0.5693	0.5838	0.6013	0.6187	0.6483	0.6749	0.6927	0.7197	0.7508
313 K	0.5048	0.5147	0.5305	0.5497	0.5727	0.5908	0.6073	0.6318	0.6679
323 K	0.4489	0.4582	0.4749	0.4967	0.5102	0.5277	0.5424	0.5752	0.5919

ClC(Cl)=C(Cl)Cl + c1ccccc1
Conditions	viscosity [mPa·s]
298.15 K, 101 kPa, x2 = 0.0876	0.8015
298.15 K, 101 kPa, x2 = 0.1609	0.771
298.15 K, 101 kPa, x2 = 0.3555	0.7018
298.15 K, 101 kPa, x2 = 0.452	0.6743
298.15 K, 101 kPa, x2 = 0.6216	0.6351
298.15 K, 101 kPa, x2 = 0.6602	0.6286
298.15 K, 101 kPa, x2 = 0.708	0.6209
298.15 K, 101 kPa, x2 = 0.781	0.6115
298.15 K, 101 kPa, x2 = 0.8752	0.6029
298.15 K, 101 kPa, x2 = 0.9037	0.6011
303.15 K, 101.33 kPa, x1 = 0.1913	0.577
303.15 K, 101.33 kPa, x1 = 0.2749	0.584
303.15 K, 101.33 kPa, x1 = 0.3761	0.605
303.15 K, 101.33 kPa, x1 = 0.4668	0.624
303.15 K, 101.33 kPa, x1 = 0.5756	0.648
303.15 K, 101.33 kPa, x1 = 0.6664	0.675
303.15 K, 101.33 kPa, x1 = 0.7757	0.712
303.15 K, 101.33 kPa, x1 = 0.8828	0.746

O=[N+]([O-])c1ccccc1 + c1ccccc1
101 kPa
Conditions	viscosity [mPa·s]
298.15 K, x2 = 0.2096	1.417
298.15 K, x2 = 0.4874	1.017
298.15 K, x2 = 0.8636	0.681
303.15 K, x1 = 0.0887	0.6013
303.15 K, x1 = 0.1796	0.654
303.15 K, x1 = 0.2737	0.7103
303.15 K, x1 = 0.3694	0.7841
303.15 K, x1 = 0.4673	0.865
303.15 K, x1 = 0.5682	0.9589
303.15 K, x1 = 0.6723	1.075
303.15 K, x1 = 0.7788	1.218
303.15 K, x1 = 0.8874	1.39

ClC(Cl)=C(Cl)Cl + c1ccncc1
298.15 K, 101 kPa
Conditions	viscosity [mPa·s]
x1 = 0.0296	0.8879
x1 = 0.1254	0.8794
x1 = 0.1862	0.875
x1 = 0.2246	0.8719
x1 = 0.2887	0.8657
x1 = 0.4448	0.8496
x1 = 0.5638	0.8411
x1 = 0.6271	0.837
x1 = 0.7214	0.8324
x1 = 0.842	0.8315
x1 = 0.9127	0.8331
x1 = 0.9559	0.8373
